# Experimental data as given in ChEMBL document CHEMBL5537149, “Design, synthesis, and lead optimization of piperazinyl-pyrimidine analogues as potent small molecules targeting the viral capping machinery of Chikungunya virus” (Eur J Med Chem, 2024).
# Activity calls are given as the source filed them. No cut-off for these calls is given here.
# Legend:
# [1] = Metabolic stability in human liver microsomes assessed as half-life preincubated for 5 mins followed by NADPH addition and measured upto 60 mins by HPLC-MS/MS analysis; assay type: ADME, Microsome; conditions: time < 65 min
# Caco-2 [2] = assay: Induction of apoptosis in human Caco-2 cells assessed as increase in PARP expression at 6.25 to 100 uM incubated for 72 hrs by Western blot analysis; assay type: toxicity, cell-based; conditions: caco-2, 72 h, dose 6.25-100 µM
# Caco-2 [3] = assay: Induction of apoptosis in human Caco-2 cells assessed as increase in caspase-3 expression at 6.25 to 100 uM incubated for 72 hrs by Western blot analysis; assay type: toxicity, cell-based; conditions: caco-2, 72 h, dose 6.25-100 µM
# [4] = Cytotoxicity against African green monkey Vero cells assessed as reduction in overall metabolic activity incubated for 5 days by MTS reagent based absorbance method; assay type: toxicity, cell-based; conditions: chlorocebus sabaeus, time 5 day
# [5] = Aqueous solubility of compound at pH 7.4 by HPLC analysis; assay type: physicochemical
# Chikungunya virus [6] = assay: Antiviral activity against Chikungunya virus infected in African green monkey Vero cells assessed as reduction in viral induced cell death incubated for 5 days by MTS reagent based absorbance method; assay type: functional, organism-based; conditions: 120 h
# Caco-2 [7] = assay: Cytotoxicity against human Caco-2 cells incubated for 24 to 72 hrs by MTT assay; assay type: toxicity, cell-based; conditions: time 24-72 hrs
# [8] = Selectivity index, ratio of CC50 for cytotoxicity against African green monkey Vero cells to EC50 for antiviral activity against Chikungunya virus infected in African green monkey Vero cells assessed as reduction in viral induced cell death; assay type: toxicity, cell-based; conditions: read-out: Ratio CC50/EC50
# Zika virus = assay: Antiviral activity against Zika virus infected in African green monkey Vero cells assessed as reduction in virus induced cell death; assay type: functional, organism-based
# Sindbis virus = assay: Antiviral activity against Sindbis virus HRsp infected in African green monkey Vero cells assessed as reduction in virus induced cell death; assay type: functional, organism-based
# Enterovirus = assay: Antiviral activity against Human enterovirus 71 infected in African green monkey Vero cells assessed as reduction in virus induced cell death; assay type: functional, organism-based
# Semliki Forest virus = assay: Antiviral activity against Semliki forest virus infected in African green monkey Vero cells assessed as reduction in virus induced cell death; assay type: functional, organism-based
# Chikungunya virus [9] = assay: Antiviral activity against Chikungunya virus 899 infected in African green monkey Vero cells assessed as reduction in viral RNA replication preincubated for 2 hrs with subsequent viral infected followed by media replacement with compound and measured after 48 hrs by qRT-PCR analysis; assay type: functional, organism-based; conditions: dose 0.25-60 µM, time 50.0 hrs
# Chikungunya virus [10] = assay: Fold resistance , ratio of EC50 for antiviral activity against CHVB-resistant Chikungunya virus infected in African green monkey Vero cells to EC50 for antiviral activity against wildtype Chikungunya virus 899 infected in African green monkey Vero cells; assay type: functional
compound,measurement,setting,value
CCNc1nc(C)cc(N2CCN(C(=O)c3ccc(OC)cc3)CC2)n1,half-life,[1],> 60 min
same,Activity,Caco-2 [2],Non-Toxic
same,Activity,Caco-2 [3],Non-Toxic
same,CC50 at 120 h,[4],136 µM
same,solubility,[5],> 120 µM
same,EC50,Chikungunya virus [6],1400 nM
same,Activity,Caco-2 [7],Non-Toxic
same,selectivity ratio,[8],97
CCCS(=O)(=O)N1CCN(c2nc(C)cc(NCC)n2)CC1,Activity,Zika virus,inactive
same,Activity,Sindbis virus,inactive
same,Activity,Enterovirus,inactive
same,solubility,[5],> 120 µM
same,Activity,Semliki Forest virus,inactive
same,EC50,Chikungunya virus [6],70000 nM
CCNc1nc(C)cc(N2CCN(C(=O)c3cccc(C(F)(F)F)c3)CC2)n1,half-life,[1],> 60 min
same,CC50 at 120 h,[4],80 µM
same,solubility,[5],> 120 µM
same,EC50,Chikungunya virus [6],1300 nM
same,selectivity ratio,[8],60
CCNc1cc(C)nc(N2CCN(C(=O)c3ccc(I)cc3)CC2)n1,half-life,[1],> 60 min
same,CC50 at 120 h,[4],> 100 µM
same,solubility,[5],116 µM
same,EC50,Chikungunya virus [6],2900 nM
same,selectivity ratio,[8],> 34
CCNc1nc(C)cc(N2CCN(C(=O)c3cccc(I)c3)CC2)n1,half-life,[1],42 min
same,CC50 at 120 h,[4],> 100 µM
same,solubility,[5],> 120 µM
same,EC50,Chikungunya virus [6],1000 nM
same,selectivity ratio,[8],> 98
Cc1cc(N(C)C)nc(N2CCN(C(=O)c3ccc(Br)cc3)CC2)n1,half-life,[1],29 min
same,CC50 at 120 h,[4],76 µM
same,solubility,[5],114 µM
same,EC50,Chikungunya virus [6],13000 nM
same,selectivity ratio,[8],6.02
CCNc1nc(C)cc(N2CCN(C(=O)c3cccc(Br)c3)CC2)n1,half-life,[1],> 60 min
same,Activity,Caco-2 [2],Non-Toxic
same,Activity,Caco-2 [3],Non-Toxic
same,CC50 at 120 h,[4],> 100 µM
same,solubility,[5],> 120 µM
same,EC50,Chikungunya virus [6],940 nM
same,Activity,Caco-2 [7],Non-Toxic
same,selectivity ratio,[8],> 107
CCNc1ccnc(N2CCN(C(=O)c3ccc(F)cc3)CC2)n1,half-life,[1],> 60 min
same,CC50 at 120 h,[4],183 µM
same,solubility,[5],> 120 µM
same,EC50,Chikungunya virus [6],3900 nM
same,selectivity ratio,[8],47
CCCC(=O)N1CCN(c2nc(C)cc(NCC)n2)CC1,Activity,Zika virus,inactive
same,Activity,Sindbis virus,inactive
same,Activity,Enterovirus,inactive
same,solubility,[5],> 120 µM
same,Activity,Semliki Forest virus,inactive
same,EC50,Chikungunya virus [6],67000 nM
CCNc1nc(C)cc(N2CCN(C(=O)c3ccc(C(C)(C)C)cc3)CC2)n1,half-life,[1],> 60 min
same,CC50 at 120 h,[4],45 µM
same,solubility,[5],120 µM
same,EC50,Chikungunya virus [6],2400 nM
same,selectivity ratio,[8],19
CCNc1cc(C)nc(N2CCN(C(=O)c3cccc(Br)c3)CC2)n1,half-life,[1],9.5 min
same,CC50 at 120 h,[4],> 100 µM
same,solubility,[5],> 120 µM
same,EC50,Chikungunya virus [6],5100 nM
same,selectivity ratio,[8],> 20
CCNc1nc(C)cc(N2CCN(C(=O)c3ccc([N+](=O)[O-])cc3Cl)CC2)n1,half-life,[1],> 60 min
same,Activity,Caco-2 [2],Non-Toxic
same,Activity,Caco-2 [3],Non-Toxic
same,CC50 at 120 h,[4],> 100 µM
same,solubility,[5],111 µM
same,Activity,Chikungunya virus [9],Dose-Dependent Effect
same,Ratio EC50,Chikungunya virus [10],15.1
same,EC50,Chikungunya virus [6],> 780 nM
same,Activity,Caco-2 [7],Non-Toxic
Cc1cc(N2CCN(S(=O)(=O)c3ccc(Cl)cc3)CC2)nc(NC(C)C)n1,half-life,[1],54 min
same,CC50 at 120 h,[4],19 µM
same,solubility,[5],76 µM
same,EC50,Chikungunya virus [6],3800 nM
same,selectivity ratio,[8],4.9
CCNc1nc(C)cc(N2CCN(C(=O)c3ccc(C)cc3)CC2)n1,half-life,[1],> 60 min
same,CC50 at 120 h,[4],203 µM
same,solubility,[5],> 120 µM
same,EC50,Chikungunya virus [6],2400 nM
same,selectivity ratio,[8],84
CCNc1cc(C)nc(N2CCN(C(=O)c3ccc(Cl)cc3)CC2)n1,half-life,[1],> 60 min
same,CC50 at 120 h,[4],89 µM
same,solubility,[5],> 120 µM
same,EC50,Chikungunya virus [6],2400 nM
same,selectivity ratio,[8],37
CNc1nc(C)cc(N2CCN(S(=O)(=O)c3ccc(F)cc3)CC2)n1,half-life,[1],> 60 min
same,CC50 at 120 h,[4],99 µM
same,solubility,[5],> 120 µM
same,EC50,Chikungunya virus [6],11000 nM
same,selectivity ratio,[8],9.2
CCNc1nc(C)cc(N2CCN(C(=O)c3ccc(Cl)c(Cl)c3)CC2)n1,half-life,[1],> 60 min
same,Activity,Caco-2 [2],Non-Toxic
same,Activity,Caco-2 [3],Non-Toxic
same,CC50 at 120 h,[4],46 µM
same,solubility,[5],111 µM
same,EC50,Chikungunya virus [6],570 nM
same,Activity,Caco-2 [7],Non-Toxic
same,selectivity ratio,[8],81
